Reference: patent US11491245B2, “Gadolinium chelate compounds for use in magnetic resonance imaging” (BAYER PHARMA AKTIENGESELLSCHAFT, priority 2015, dated 2022)

Tested on: GS9L brain tumors
Test: Contrast-enhanced MRI of brain tumors in rats
Assay type: in vivo, male Fisher rats (F344)
Settings: GS9L rat brain tumors, 0.1 mmol Gd/kg bw vs Reference compound 1 0.1 mmol Gd/kg bw, FIG. 11A

## CC(C(=O)NCC(=O)NCC(CNC(=O)CNC(=O)C(C)N1CCN(CC(=O)[O-])CCN(CC(=O)[O-])CCN(CC(=O)[O-])CC1)(CNC(=O)CNC(=O)C(C)N1CCN(CC(=O)[O-])CCN(CC(=O)[O-])CCN(CC(=O)[O-])CC1)CNC(=O)CNC(=O)C(C)N1CCN(CC(=O)[O-])CCN(CC(=O)[O-])CCN(CC(=O)[O-])CC1)N1CCN(CC(=O)[O-])CCN(CC(=O)[O-])CCN(CC(=O)[O-])CC1.[Gd+3].[Gd+3].[Gd+3].[Gd+3] (stereo not shown) [Example 3, Tetragadolinium [4,10-bis(carboxylatomethyl)-7-{3,6,12,15-tetraoxo-16-[4,7,10-tris-(carboxylatomethyl)-1,4,7,10-tetraazacyclododecan-1-yl]-9,9-bis({[({2-[4,7,10-tris-(carboxylatomethyl)-1,4,7,10-tetraazacyclododecan-1-yl]propanoyl}amino)acetyl]-amino}methyl)-4,7,11,14-tetraazaheptadecan-2-yl}-1,4,7,10-tetraazacyclododecan-1-yl]acetate]
  lesion-to-brain contrast at the same dose: higher lesion-to-brain contrast and an excellent demarcation of the tumor rim
